ChEMBL document CHEMBL1158994, “Methylpendolmycin, an indolactam from a Nocardiopsis sp” (J Nat Prod, 1991)
≈ marks a conversion by molar mass, not a printed value.

Biological target: Protein kinase C (PKC)
Assay: Displacement of radiolabeled PDBU from PKC in rat forebrain
Assay type: tissue-based

Row | SMILES | Ki [µM] | IC50 [mg/L]
1 | CCCCCCCCCCCCCC(=O)O[C@@H]1[C@@H](C)[C@@]2(O)[C@@H](C=C(CO)C[C@]3(OC)C(=O)C(C)=C[C@@H]23)[C@@H]2C(C)(C)[C@]12OC(C)=O | 0.5 | –
2 | C=CC(C)(C)c1ccc2c3c(c[nH]c13)C[C@@H](CO)NC(=O)[C@H]([C@@H](C)CC)N2C [METHYLPENDOLMYCIN] | – | 0.0135 (≈ 0.0352 µM)
